Test results published in US20090298864A1, “Methods for Treating Mild Cognitive Impairment” (The Trustees of Columbia University in the City of New York, priority 2005, published 2009).
“Also recorded” adds a separate entry of the source.

Legend:
[1] = tested on: mouse model of Alzheimer's disease; conditions: brief treatment of a mouse model of Alzheimer's disease; cited from earlier work
APP mice = assay: Contextual fear learning (freezing) in APP mouse model of mild cognitive impairment; type: in vivo; conditions: single transgenic APP mice, 3-5 months old; rolipram 0.3 mg/kg vs vehicle; freezing measured 24 hours after training; FIG. 1
Experimental: (§1) The effect of rolipram on contextual fear learning in APP mice was determined according to the methods set forth in Gong et al., J Clin Invest. 114(11):1624-34 (2004), which are described briefly as follows:
(§2) Three to five month old single transgenic APP and WT mice were separated into four groups: APP mice treated with vehicle (“APP control group”), APP mice treated with rolipram at 0.3 mg/kg (“APP rolipram group”), WT mice treated with vehicle (“control vehicle group”), and WT mice treated with rolipram at 0.3 mg/kg (“control rolipram group”). 30 minutes after treatment with either vehicle or rolipram, the mice were placed in a conditioning chamber and subjected to a series of electrical shocks to the feet. Animal behavior was evaluated for three types of response to the shocks (flinching, jumping and screaming) and thresholds for various types of responses were determined for each animal
(§3) Mice were placed in the conditioning chamber for about 2 minutes, then an auditory tone was given for about 30 seconds. During the last two seconds of the tone, the mice were given a foot shock. The mice were left in the conditioning chamber for about 30 seconds, then were returned to their home cages. […]
(§4) To evaluate contextual fear learning, freezing was measured for 5 consecutive minutes in the conditioning chamber 24 hours after training.

WT mice = assay: Contextual fear learning (freezing) in WT control mice; type: in vivo, mouse; conditions: rolipram 0.3 mg/kg vs vehicle, freezing measured 24 hours after training, FIG. 1
Experimental: as §1, §2, §3, §4

COc1ccc(C2CNC(=O)C2)cc1OC1CCCC1 (stereo not drawn) [rolipram]
memory (long-term potential and contextual learning) [1]: improves memory in both long-term potential and contextual learning
freezing in the contextual fear conditioning test (contextual fear learning) (APP mice): much higher incidence of freezing; also recorded: improved contextual fear learning
freezing responses in the contextual fear conditioning test (WT mice): no significant difference
